{"source": "PubChem BioAssay AID1996", "data": [{"settings": "buffer; pH 7.4; 200.0 µM", "units": {"solubility kinetic": "mg/mL"}, "values": [{"smiles": "Cc1nn(CC(=O)N2CCc3ccccc3C2)c(C)c1[N+](=O)[O-]", "solubility kinetic": "> 0.0472"}, {"smiles": "O=C(NCCCl)C1Cc2c(ccc3ccccc23)O1", "note": "(stereo not given)", "solubility kinetic": 0.0402}, {"smiles": "O=C(NC1CCOc2ccccc21)C1CCCC1", "note": "(stereo not given)", "solubility kinetic": "> 0.0368"}, {"smiles": "CCN1CCN(c2nc3ccccn3c(=O)c2C=O)CC1", "solubility kinetic": "> 0.0429"}, {"smiles": "CN(C(=O)COC(=O)C1CCN(S(=O)(=O)c2ccc(Cl)cc2)CC1)C1CCS(=O)(=O)C1", "note": "(stereo not given)", "solubility kinetic": 0.018}, {"smiles": "CC1(C)Cc2cccc(OCC(=O)NCc3ccccc3)c2O1", "solubility kinetic": "> 0.0467"}, {"smiles": "CC(=O)c1cccc(NC(=O)c2ccc(C)o2)c1", "solubility kinetic": "> 0.0365"}, {"smiles": "CCOC(=O)CSc1nc2cc(C(F)(F)F)cnc2n1C", "solubility kinetic": 0.0449}, {"smiles": "CCC1(c2ccccc2)NC(=O)N(CC(=O)Nc2ccc(N3CCOCC3)cc2)C1=O", "note": "(stereo not given)", "solubility kinetic": "> 0.0634"}, {"smiles": "O=C(Nc1ccccc1)/C(=C\\c1ccccc1)NC(=O)c1ccco1", "solubility kinetic": 0.0007}, {"smiles": "O=C(/C=C/c1ccco1)N1CCN(c2ccc(F)cc2)CC1", "solubility kinetic": 0.0056}, {"smiles": "CCC(C(=O)Nc1cccnc1)c1ccccc1", "note": "(stereo not given)", "solubility kinetic": 0.0343}, {"smiles": "COc1ccc(Nc2nc3ccccc3c(=O)[nH]2)cc1", "solubility kinetic": 0.0244}, {"smiles": "O=C(O)CSc1ncnc2sc(-c3ccccc3)cc12", "solubility kinetic": "> 0.0454"}, {"smiles": "CCOc1cc(N2CCOCC2)c(OCC)cc1NC(=O)CSc1ncccc1C(=O)O", "solubility kinetic": "> 0.0692"}, {"smiles": "O=C(Cc1c(F)cccc1Cl)OCC(=O)c1ccc[nH]1", "solubility kinetic": 0.0261}, {"smiles": "CCc1nc(SCC(=O)O)c2c3c(sc2n1)COC(C)(C)C3", "solubility kinetic": "> 0.0508"}, {"smiles": "CC(=O)c1ccc(S(=O)(=O)N2CCNCC2)cc1.Cl", "solubility kinetic": 0.0455}, {"smiles": "CC(C)Oc1ccc(/C=C(\\C#N)C(=O)NC2CC2)cc1", "solubility kinetic": 0.0134}, {"smiles": "CCN(C(=O)CSc1ccc2ccccc2n1)C1CCCCC1", "solubility kinetic": 0.0146}, {"smiles": "COc1ccc(NC(=O)CN(C)C(=O)Cc2ccc3c(c2)CCC3)cc1", "solubility kinetic": 0.0122}, {"smiles": "Fc1cccc(Cc2noc(CN3CCSCC3)n2)c1", "solubility kinetic": "> 0.044"}, {"smiles": "Cc1cc(S(=O)(=O)c2ccc([N+](=O)[O-])cn2)ccc1Br", "solubility kinetic": 0.0017}, {"smiles": "COc1cccc(S(=O)(=O)Nc2noc3ccccc23)c1", "solubility kinetic": 0.0376}, {"smiles": "COc1ccc(CCN(C)c2ncnc3sccc23)cc1OC", "solubility kinetic": "> 0.0494"}, {"smiles": "CCC(Oc1ccccc1)C(=O)Nc1ncc([N+](=O)[O-])s1", "note": "(stereo not given)", "solubility kinetic": "> 0.0461"}, {"smiles": "Cc1ccc2nc(SC(C)C(=O)NC3CCCC3)[nH]c2c1", "note": "(stereo not given)", "solubility kinetic": "> 0.0455"}, {"smiles": "O=C(NC1CCCCC1)c1cccc(OCc2ccccc2)c1", "solubility kinetic": 0.0008}, {"smiles": "COc1ccccc1CNC(=O)c1ccc(C)s1", "solubility kinetic": "> 0.0392"}, {"smiles": "CNC(=S)Nc1cccc(C(=O)O)c1", "solubility kinetic": "> 0.0315"}, {"smiles": "O=C(COC(=O)Cc1c(Cl)cccc1Cl)NCc1ccco1", "solubility kinetic": "> 0.0513"}, {"smiles": "Cc1ccc(NC(=O)C2=NNC(=O)CC2)cc1F", "solubility kinetic": "> 0.0374"}, {"smiles": "CNC(=S)Nc1ccc(Cc2ccncc2)cc1", "solubility kinetic": "> 0.0386"}, {"smiles": "CCc1noc(C)c1C(=O)NCCc1ccccc1", "solubility kinetic": "> 0.0387"}, {"smiles": "Cc1ccc(CNCCc2ccc(F)cc2)s1", "solubility kinetic": 0.0267}, {"smiles": "COc1ccc(C(=O)Nc2nc3ccccc3[nH]2)cc1", "solubility kinetic": 0.0041}, {"smiles": "COc1ccc(Nc2ccc(N3C(=O)CCC3=O)cc2[N+](=O)[O-])cn1", "solubility kinetic": 0.0031}, {"smiles": "COC(=O)c1ccc(Cl)c(NC(=O)c2cccc([N+](=O)[O-])c2C)c1", "solubility kinetic": 0.0007}, {"smiles": "CC(C)(C)c1ccc(C(=O)OCCN2CCCCC2)cc1.Cl", "solubility kinetic": 0.046}, {"smiles": "CC(C)(C)C(=O)Nc1cc(NC(=O)C(C)(C)C)cc(C(=O)Nc2c[nH]c(=O)[nH]c2=O)c1", "solubility kinetic": 0.0453}, {"smiles": "S=C(NCCCN1CCOCC1)NC1CC1", "solubility kinetic": "> 0.0365"}, {"smiles": "COCC(=O)Nc1c(C(=O)N2CCCC2)oc2ccccc12", "solubility kinetic": 0.0404}, {"smiles": "O=C(O)C1C2CCC(C2)C1C(=O)NCCc1ccccc1", "note": "(stereo not given)", "solubility kinetic": 0.0429}, {"smiles": "O=c1cc(O)c2sc(Nc3ccc(F)cc3)nc2[nH]1", "solubility kinetic": 0.0003}, {"smiles": "O=C(CCC(=O)N1CCCC1)Nc1ccc([N+](=O)[O-])cc1", "solubility kinetic": 0.0413}, {"smiles": "COc1ccc(C(CNC(=O)c2cc(S(=O)(=O)NCc3ccco3)ccc2C)N(C)C)cc1", "note": "(stereo not given)", "solubility kinetic": "> 0.0707"}, {"smiles": "Cn1c(=O)n(CCO)c(=O)c2c1nc(Br)n2Cc1ccccc1", "solubility kinetic": "> 0.0569"}, {"smiles": "N#Cc1ccc(Oc2ncccn2)cc1", "solubility kinetic": "> 0.0296"}, {"smiles": "Cc1cc(C)nc(SCC(=O)OCC(=O)Nc2ccccc2)n1", "solubility kinetic": "> 0.0497"}, {"smiles": "CCOC(=O)COc1cccc2c(=O)n(CC(N)=O)ccc12", "solubility kinetic": 0.0244}, {"smiles": "COc1cc(C(F)(F)F)c(C(=O)NCc2cccc(Cl)c2)cn1", "solubility kinetic": 0.0053}, {"smiles": "CC(C)CN1C(=O)NC2(CCCc3ccccc32)C1=O", "note": "(stereo not given)", "solubility kinetic": "> 0.0409"}, {"smiles": "Cc1ccc2c(CN3CCC(C)CC3)cc(=O)oc2c1C", "solubility kinetic": 0.0039}, {"smiles": "C=CCSc1nc2ccccc2n2cnnc12", "solubility kinetic": "> 0.0363"}, {"smiles": "COCCN(Cc1ccccc1)C(=S)Nc1ccc(Cl)cc1", "solubility kinetic": 0.0086}, {"smiles": "Cc1csc(SC(C)C(=O)NCc2ccc3c(c2)OCO3)n1", "note": "(stereo not given)", "solubility kinetic": 0.049}, {"smiles": "Cc1[nH]c2ccccc2c1-c1nc2ccccc2[nH]c1=O", "solubility kinetic": 0.0013}, {"smiles": "CC(C)(C)NC(=O)C1c2ccccc2Oc2ccccc21", "solubility kinetic": 0.0017}, {"smiles": "CCOC(=O)c1ccc2[nH]c3c(c2c1)CCCC3", "solubility kinetic": 0.0055}, {"smiles": "CC(=O)c1cn(C)c(=O)c2ccccc12", "solubility kinetic": "> 0.0302"}]}]}
